Experiment: LD50, oral dosing of mice or rabbits
Details: in vivo
Text: LD50 means a lethal dose (mg/kg) necessary to kill more than half of examined mice or rabbits when the mice or rabbits are orally dosed with a certain concentration. Safety improves as LD50 increases.
As is clear from Table 11, an aqueous ink composition of the present invention is 5 to 8 times more safe than a conventional aqueous ink composition. Therefore, to maintain this standard of safety, triethanolamine used in the present invention is limited to triethanolamine meeting the standards described in the present specification and the Japanese Standards of Cosmetic Ingredient (Yakuji Nippo, Ltd., second edition).

CCN(CC)N=O [Diethyl nitrosamine, diethyl nitrosamine] gave an LD50 of 15 mg/kg.

Source: US5522922A, “Aqueous ink composition” (priority 1993, dated 1996)
